Measurements: patent US10184137B2, “Method of producing isoprene monomer” (AJINOMOTO CO., INC., priority 2014, dated 2019)
Where a name gives a salt, the structure may show the parent alone. Each block holds one compound with its values, some of them ahead of it.

How the values were obtained:
[1] = target: T1, Nitrosopumilus maritimus mevalonate kinase (nmr), wild type, SEQ ID NO:9, N-terminal His-tag (Nitrosopumilus maritimus, UniProt A9A427); test: Inhibition of nmr-derived mevalonate kinase by DMAPP, GPP, FPP or DPM; assay type: biochemical; settings: 1 mM DPM, control 0.2064
T1 sequence (A9A427 1-313): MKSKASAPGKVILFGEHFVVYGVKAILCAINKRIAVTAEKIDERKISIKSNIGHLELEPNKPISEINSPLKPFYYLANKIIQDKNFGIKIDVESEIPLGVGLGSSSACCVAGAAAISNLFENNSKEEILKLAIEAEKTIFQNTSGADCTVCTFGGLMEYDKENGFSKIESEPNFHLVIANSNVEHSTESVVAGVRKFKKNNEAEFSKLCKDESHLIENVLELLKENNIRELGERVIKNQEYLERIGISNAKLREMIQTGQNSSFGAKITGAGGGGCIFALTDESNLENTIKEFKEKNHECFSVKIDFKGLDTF
Experimental: (§1) Km value was calculated by Lineweaver-Burk plot.
(§2) Since GPP and FPP solutions contain methanol, methanol which was needed to keep the same methanol level at the addition to the reaction system was added to the reaction solution, which was designated as control.
(§3) Effect of 1 mM diphosphomevalonate (DPM) on each enzyme was also studied.

[2] = target: T2, Methanocella paludicola mevalonate kinase (mpd), wild type, SEQ ID NO:1, N-terminal His-tag (Methanocella paludicola, UniProt D1YZ39); test: Inhibition of mpd-derived mevalonate kinase by DMAPP, GPP, FPP or DPM; assay type: biochemical; settings: 1 mM DPM, control 0.148
T2 sequence (D1YZ39 entry or part of it): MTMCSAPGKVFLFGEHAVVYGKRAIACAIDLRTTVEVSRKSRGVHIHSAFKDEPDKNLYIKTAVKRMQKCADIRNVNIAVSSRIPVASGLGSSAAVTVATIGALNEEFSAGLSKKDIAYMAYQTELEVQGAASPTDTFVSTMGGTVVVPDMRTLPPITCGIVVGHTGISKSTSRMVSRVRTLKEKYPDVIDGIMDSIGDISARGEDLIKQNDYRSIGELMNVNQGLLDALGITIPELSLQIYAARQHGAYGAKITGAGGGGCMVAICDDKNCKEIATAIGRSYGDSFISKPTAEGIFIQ
Experimental: as §1, §2, §3

[3] = target: T3, Methanosarcina mazei mevalonate kinase (mma), wild type, SEQ ID NO:12, N-terminal His-tag (Methanosarcina mazei, UniProt Q8PW39); test: Inhibition of mma-derived mevalonate kinase by DMAPP, GPP, FPP or DPM; assay type: biochemical
T3 sequence (Q8PW39 1-301): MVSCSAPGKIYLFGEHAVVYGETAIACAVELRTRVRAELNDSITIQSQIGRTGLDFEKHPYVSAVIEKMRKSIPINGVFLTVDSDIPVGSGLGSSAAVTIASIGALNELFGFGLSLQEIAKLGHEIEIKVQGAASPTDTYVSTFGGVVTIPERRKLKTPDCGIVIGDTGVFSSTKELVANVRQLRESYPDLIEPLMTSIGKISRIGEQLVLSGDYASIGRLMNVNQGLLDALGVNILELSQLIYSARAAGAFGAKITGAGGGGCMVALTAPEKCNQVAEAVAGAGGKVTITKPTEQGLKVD
Experimental: as §1, §2, §3

[4] = target: Corynebacterium variabile mevalonate kinase (cva), wild type, SEQ ID NO:3, N-terminal His-tag (Corynebacterium variabile, UniProt A0A0X2NLH5); test: Inhibition of cva-derived mevalonate kinase by DMAPP, GPP, FPP or DPM; assay type: biochemical; settings: 1 mM DPM, control 0.073275
Corynebacterium variabile mevalonate kinase (cva), wild type, SEQ ID NO:3, N-terminal His-tag, sequence (A0A0X2NLH5 entry or part of it): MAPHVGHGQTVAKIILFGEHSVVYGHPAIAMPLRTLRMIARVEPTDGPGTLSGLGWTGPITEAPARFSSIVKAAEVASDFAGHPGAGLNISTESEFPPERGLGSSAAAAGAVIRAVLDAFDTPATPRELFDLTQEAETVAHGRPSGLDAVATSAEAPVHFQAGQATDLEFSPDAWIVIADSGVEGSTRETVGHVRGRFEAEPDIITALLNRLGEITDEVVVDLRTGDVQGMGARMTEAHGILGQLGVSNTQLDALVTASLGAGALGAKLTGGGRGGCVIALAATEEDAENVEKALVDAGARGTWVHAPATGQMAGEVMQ
Experimental: as §1, §2, §3

[5] = target: T4, Methanosaeta concilii mevalonate kinase (mcl), wild type, SEQ ID NO:6, N-terminal His-tag (Methanothrix soehngenii, UniProt F4BZB3); test: Inhibition of mcl-derived mevalonate kinase by DMAPP, GPP, FPP or DPM; assay type: biochemical; settings: mcl; 1 mM DPM; control 0.1373
T4 sequence (F4BZB3 1-317): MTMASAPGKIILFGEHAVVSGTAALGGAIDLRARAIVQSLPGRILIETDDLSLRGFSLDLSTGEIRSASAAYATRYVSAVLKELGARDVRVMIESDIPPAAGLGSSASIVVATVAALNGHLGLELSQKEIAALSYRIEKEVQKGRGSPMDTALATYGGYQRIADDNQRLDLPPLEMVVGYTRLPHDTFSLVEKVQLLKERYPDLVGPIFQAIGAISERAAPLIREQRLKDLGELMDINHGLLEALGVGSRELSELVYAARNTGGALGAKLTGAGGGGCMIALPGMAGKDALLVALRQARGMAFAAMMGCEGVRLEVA
Experimental: as §1, §2, §3

[6] = target: T5, Saccharomyces cerevisiae mevalonate kinase (sce, ERG12), wild type, NP_013935.1, N-terminal His-tag (Saccharomyces cerevisiae, UniProt P07277); test: Inhibition of sce-derived mevalonate kinase by DMAPP, GPP, FPP or DPM; assay type: biochemical; settings: control 0.1028
T5 construct: His-tag (N); made in house; host or cells: E. coli BL21(DE3)
T5 sequence (P07277 1-443): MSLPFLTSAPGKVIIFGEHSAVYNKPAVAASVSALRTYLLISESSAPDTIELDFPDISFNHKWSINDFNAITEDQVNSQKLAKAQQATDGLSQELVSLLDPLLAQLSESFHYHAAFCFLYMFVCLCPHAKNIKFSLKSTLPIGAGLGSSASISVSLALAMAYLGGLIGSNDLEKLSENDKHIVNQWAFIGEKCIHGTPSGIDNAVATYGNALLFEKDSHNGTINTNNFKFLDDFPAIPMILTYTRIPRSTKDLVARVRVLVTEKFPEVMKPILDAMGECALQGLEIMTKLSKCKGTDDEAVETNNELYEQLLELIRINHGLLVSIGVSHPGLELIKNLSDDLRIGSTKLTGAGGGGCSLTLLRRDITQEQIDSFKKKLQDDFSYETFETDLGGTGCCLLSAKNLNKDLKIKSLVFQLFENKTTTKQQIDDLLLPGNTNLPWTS
Experimental: as §1, §2, §3

[7] = target: T1, Nitrosopumilus maritimus mevalonate kinase (nmr), wild type, SEQ ID NO:9, N-terminal His-tag; test: Examination of product inhibition on nmr-derived mevalonate kinase; assay type: biochemical; settings: reaction on 1 mM mevalonate
[8] = target: T2, Methanocella paludicola mevalonate kinase (mpd), wild type, SEQ ID NO:1, N-terminal His-tag; test: Km and kcat of mevalonate kinase (mpd-derived); settings: compared with the other enzymes
Experimental: (§4) Each obtained plasmid was used for transformation of E. coli BL21(DE3). […] When OD600 reached approximately 0.5, 0.1 mM IPTG (for cva, mma, nmr, and sce) or 1 mM (for mcl and mpd) of IPTG was added, and then the mixture was kept at 20° C. overnight to induce the target protein. […] After centrifugation (28,000×g, 30 min), the supernatant was adsorbed onto His-Trap HP (GE Healthcare) to elute the target protein by linear concentration gradient of Imidazol (final concentration 0.5 M). Obtained protein was dialyzed by using an external solution composed of 20 mM Tris-HCl (pH 8.0) containing 1 mM DTT and 50 mM NaCl. Dialyzed protein was designated as purified enzyme. Protein quantity was measured with Bio-RAD protein assay kit and BSA standard condition.
(§5) Decrease in absorbance at 340 nm at 30° C. was measured to determine the enzyme activity. JASCO Corporation's spectrophotometer (V-650) was used in this study. […] Km value was calculated by Lineweaver-Burk plot.

[9] = target: T4, Methanosaeta concilii mevalonate kinase (mcl), wild type, SEQ ID NO:6, N-terminal His-tag; test: Km and kcat of mevalonate kinase (mcl-derived); settings: compared with the other enzymes
Experimental: as §4, §5

[10] = HPLC verification of prepared potassium mevalonate after frozen storage; settings: HPLC peak area versus lithium mevalonate standard; stored at −20° C.
Experimental: The mixed solution was then incubated at 37° C. for 2 hours. After incubation, pH of the solution was adjusted to 8.0 by neutralization with hydrochloric acid.
HPLC used for the verification was HITACH High-Performance Liquid Chromatography (L-2000). HPLC was performed by using YMC-Pack ODS-A (150×4.6 mm I.D.: YMC CO., LTD.) as stationary phase and phosphoric acid (pH2.5) as mobile phase. Detection was performed at 210 nm.

Enzyme activity with 1 mM DPM [1]: 0.2 dABS/min | Enzyme activity with 1 mM DPM [2]: 0.156 dABS/min | Enzyme activity with 1 mM DPM ([3]; 1 mM DPM, control 0.1604): 0.1368 dABS/min | Inhibition by DPM ([3]; 1 mM diphosphomevalonate): Slight inhibitory activity | Enzyme activity with 1 mM DPM [4]: 0.07555 dABS/min | Enzyme activity with 1 mM DPM [5]: 0.1353 dABS/min | Enzyme activity with 1 mM DPM [6]: 0.0984 dABS/min | DPM-induced inhibition [7]: inhibition is not observed
SMILES: CC(O)(CCOP(=O)(O)OP(=O)(O)O)CC(=O)O (racemic) [DPM, (±)-mevalonic acid 5-diphosphate tetralithium salt]

SMILES: Nc1ncnc2c1ncn2[C@@H]1O[C@H](COP(=O)(O)OP(=O)(O)OP(=O)(O)O)[C@@H](O)[C@H]1O [ATP]
Affinity [8]: higher affinity | Affinity [9]: higher affinity

SMILES: C[C@@](O)(CCO)CC(=O)[O-].[K+] [potassium mevalonate]
stability after frozen storage [10]: stable
